Data taken from a compilation of properties of binary mixtures (doi:10.1016/j.jct.2016.09.024).

Experiment: xn = mol fraction of the nth substance listed
Details: 100 kPa

CCCC[N+](C)(CCCC)CCCC.O=S(=O)([N-]S(=O)(=O)C(F)(F)F)C(F)(F)F + CCO
speed of sound [m/s]
Details	293.15 K	298.15 K	303.15 K	308.15 K
x1 = 0.0149	–	1146.8	1130.4	1114.1
x2 = 0	1291.7	1276	1261.1	–
x2 = 0.0636	–	1271.9	1257.5	1244.1
x2 = 0.0711	1285.8	1272.2	–	1244.1
x2 = 0.1235	–	1268.1	1254.2	–
x2 = 0.2012	1277.4	1263.2	1249.4	1236.2
x2 = 0.3995	1262.3	–	1235.2	1221.9
x2 = 0.6009	1241.4	1227.8	1214.4	1200.8
x2 = 0.7187	1224.1	1210.4	1196.3	1182.7
x2 = 0.8118	1205.7	1192	–	1163.3
x2 = 0.8605	1194.3	–	–	1151.2
x2 = 0.9076	1181.8	1166.7	1151.6	1136.7
x2 = 0.93	1175.6	1160.2	–	1129.9
x2 = 0.95	1170.7	–	–	1123.5
x2 = 0.96	–	1152.3	–	1120.9
x2 = 0.9702	1165.7	–	1133.6	–

CCO + CCCC[N+](C)(CCCC)CCCC.O=S(=O)([N-]S(=O)(=O)C(F)(F)F)C(F)(F)F
x1 = 1
Details	speed of sound [m/s]
293.15 K	1160.4
298.15 K	1143.3
303.15 K	1126.1

C[N+](C)(C)CCO.O=S(=O)([N-]S(=O)(=O)C(F)(F)F)C(F)(F)F + CCO
speed of sound [m/s]
Details	293.15 K	298.15 K	303.15 K	308.15 K
x2 = 0.7051	1221.8	1207.6	1195.3	1183.5
x2 = 0.801	–	1183.2	1170	1157.2
x2 = 0.9002	1172.1	1156.6	1142.5	1128.2
x2 = 0.9601	1162.4	1145.9	1130.3	1115

CCO + CCCC[N+](C)(C)C.O=S(=O)([N-]S(=O)(=O)C(F)(F)F)C(F)(F)F
x1 = 1
Details	speed of sound [m/s]
293.15 K	1160.4
308.15 K	1108.9

CCO + C[N+](C)(C)CCO.O=S(=O)([N-]S(=O)(=O)C(F)(F)F)C(F)(F)F
x1 = 1
Details	speed of sound [m/s]
303.15 K	1126.1
308.15 K	1108.9

CCCC[N+](C)(C)C.O=S(=O)([N-]S(=O)(=O)C(F)(F)F)C(F)(F)F + CCO
speed of sound [m/s]
Details	293.15 K	298.15 K	303.15 K	308.15 K
x1 = 0.01	1160.4	–	1126.8	1110.1
x2 = 0	1239.5	1228.9	1218.3	1208.1
x2 = 0.0605	1237.5	1226.8	1216.1	1205.9
x2 = 0.101	1235.4	1224.6	1214	–
x2 = 0.1991	–	1220.2	1209.5	1199
x2 = 0.3	1225.3	1214.6	–	1193.1
x2 = 0.4096	1218.1	1206.9	1195.8	1185
x2 = 0.4998	1210.5	1199.2	1187.9	–
x2 = 0.5996	1200.8	1189.1	–	1166.4
x2 = 0.6504	1195.1	1183.1	–	1159.6
x2 = 0.7501	–	1169.2	1156.6	1144.4
x2 = 0.8514	1166.7	1152.8	–	1126.2
x2 = 0.88	1163.4	–	1134.6	1117
x2 = 0.92	1158.1	1143.6	1129.8	1114.5
x2 = 0.93	1158	1142.8	1128	1113.2
x2 = 0.94	1157.5	1142.1	1127	1112.2
x2 = 0.9609	1157.2	1141.7	1126	1110.5
x2 = 0.97	–	1142.1	–	1110.4
x2 = 0.98	–	1142.2	1125.9	1109.9
